Tested on: imiquimod (IMQ)-induced psoriasis-like skin inflammation
Experiment: Imiquimod (IMQ)-induced psoriasis-like skin inflammation
Format: in vivo, mice
Conditions: daily topical
Protocol: A nanoparticle composition comprising the macrolide tacrolimus was produced as detailed in Example 2. The resulting composition was formulated in a spray suitable for topical delivery on the skin. The efficacy of the produced nanoparticles was subsequently tested in an imiquimod (IMQ)-induced psoriasis-like skin inflammation in mice. To this end, psoriasis-like skin inflammation was induced on the ears and shaved backs of the mice by the daily application of 50 mg of 5% Imiquimod (IMQ) cream. Compared to naïve mice, animals treated with IMQ developed clinical signs of disease including statistically significant increases in psoriasis clinical score and ear thickness over time as well as increased spleen weight (splenomegaly) upon termination of the experiment.

## C[C@H]1C[C@H]2[C@@H]3CCC4=CC(=O)C=C[C@]4(C)[C@@]3(F)[C@@H](O)C[C@]2(C)[C@@]1(O)C(=O)CCl [Clobetasol]
Unwanted side effect
  body weight: significant reduction
Compared to IMQ-only treated mice
  spleen weight: significantly reduced
Compared to IMQ-only treated mice, significant by day 3 and throughout the rest of the study
  psoriasis clinical score: significantly reduced
Compared to IMQ-only treated mice, significant by day 5 and throughout the rest of the study
  ear thickness: significantly reduced
